According to ChEMBL document CHEMBL1201862, “PubChem BioAssay data set” (2004):
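How tested: cells in 96-well plates exposed to compound for 48 hours at five concentrations. GI50 is the concentration that inhibits growth by half.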 Active and inactive are the calls of the source. No stated cut-off is given here; in the data, active = GI50 up to about 1.1 µM and inactive = higher.

Columns and labels:
Experiment in all cases: NCI-60 cell line screen, 48 h
TK-10 = test system: TK-10
OVCAR-5 = test system: OVCAR-5
U-251 = test system: U-251
DU-145 = test system: DU-145
SNB-19 = test system: SNB-19
SK-OV-3 = test system: SK-OV-3
A498 = test system: A498
COLO 205 = test system: COLO 205
OVCAR-8 = test system: OVCAR-8
KM12 = test system: KM12
786-0 = test system: 786-0
SW-620 = test system: SW-620
SF-539 = test system: SF-539
HT-29 = test system: HT-29
NCI-H522 = test system: NCI-H522
SR = test system: SR
HL-60 = test system: HL-60
SNB-75 = test system: SNB-75
OVCAR-4 = test system: OVCAR-4
BT-549 = test system: BT-549

Measured: GI50

CN(C)N1C(=O)SCC(c2ccccc2)(c2ccccc2)C1=O
inactive: TK-10 > 100 µM | OVCAR-5 > 100 µM | U-251 > 100 µM | DU-145 > 100 µM | SNB-19 > 100 µM | SK-OV-3 > 100 µM | A498 > 100 µM | COLO 205 > 100 µM | OVCAR-8 > 100 µM | KM12 > 100 µM | 786-0 > 100 µM | SW-620 > 100 µM | SF-539 > 100 µM | HT-29 > 100 µM | NCI-H522 84.5 µM | SR > 100 µM | HL-60 > 100 µM | SNB-75 60.1 µM

CC(C)=CC(C)C(C(O)CCC1(c2ccoc2)OCCO1)S(=O)(=O)c1ccccc1 (stereo not given)
inactive: TK-10 > 100 µM | OVCAR-5 > 100 µM | U-251 > 100 µM | SNB-19 > 100 µM | OVCAR-4 > 100 µM | SK-OV-3 > 100 µM | A498 > 100 µM | COLO 205 > 100 µM | OVCAR-8 > 100 µM | KM12 > 100 µM | 786-0 > 100 µM | SW-620 > 100 µM | SF-539 > 100 µM | BT-549 > 100 µM | NCI-H522 > 100 µM | SNB-75 > 100 µM

COC(C/C(=C/CO[Si](C(C)C)(C(C)C)C(C)C)C(=O)N(C(=O)OC(C)(C)C)c1ccccc1I)OC
inactive: TK-10 49 µM | OVCAR-5 36.1 µM | U-251 37.6 µM | DU-145 > 100 µM | SNB-19 56.4 µM | OVCAR-4 44.6 µM | SK-OV-3 > 100 µM | A498 > 100 µM | COLO 205 67.5 µM | OVCAR-8 > 100 µM | KM12 41.9 µM | 786-0 28.4 µM | SW-620 59.3 µM | HT-29 > 100 µM | NCI-H522 2.77 µM | SR 34.4 µM | SNB-75 > 100 µM

CCOC(=O)C(C#N)C1=CC(=O)C(=O)c2ccc(OC)cc21 (stereo not given)
inactive: TK-10 38.5 µM | OVCAR-5 20.1 µM | U-251 29.2 µM | DU-145 19.5 µM | SNB-19 22.1 µM | OVCAR-4 19 µM | SK-OV-3 18.4 µM | A498 21.8 µM | COLO 205 17 µM | OVCAR-8 20 µM | KM12 20 µM | 786-0 25.1 µM | SW-620 18.4 µM | SF-539 18.4 µM | HT-29 31.6 µM | NCI-H522 3.89 µM | SR 57.1 µM | HL-60 38.3 µM | SNB-75 20.8 µM
